Among the data in ChEMBL document CHEMBL4411297, “Discovery, synthesis and anti-atherosclerotic activities of a novel selective sphingomyelin synthase 2 inhibitor” (Eur J Med Chem, 2019) are inhibition and IC50 values, retold here.

Molecules are shown by their SMILES. Activity calls are given as the source filed them. The rule behind the calls is not given here. Where only a bound is given, the exact number is not on record here.

Assay [1] concerns the target T1, Phosphatidylcholine:ceramide cholinephosphotransferase 2 (Homo sapiens) (UniProt Q8NHU3).
T1 sequence (whole entry): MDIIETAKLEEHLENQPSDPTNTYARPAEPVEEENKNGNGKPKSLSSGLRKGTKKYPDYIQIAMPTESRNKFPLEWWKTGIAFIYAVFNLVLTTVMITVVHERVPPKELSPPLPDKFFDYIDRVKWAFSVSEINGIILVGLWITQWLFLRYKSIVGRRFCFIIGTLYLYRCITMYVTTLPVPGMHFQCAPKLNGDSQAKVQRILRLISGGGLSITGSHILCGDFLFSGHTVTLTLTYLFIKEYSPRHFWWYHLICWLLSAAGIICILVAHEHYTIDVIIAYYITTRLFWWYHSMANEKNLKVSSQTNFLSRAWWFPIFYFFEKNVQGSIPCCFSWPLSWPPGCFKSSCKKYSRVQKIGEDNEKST
Kind of assay: Inhibition of SMS2 (unknown origin) over-expressed in H5 insect cell lysate at 100 uM using C6-NBD-Ceramide and DMPC as substrates preincubated for 30 mins followed by substrate addition and measured after 2 hrs by TLC or HPLC method relative to control. The format is subcellular.

The target of assay [2] is T2, Phosphatidylcholine:ceramide cholinephosphotransferase 2 (Homo sapiens, UniProt Q8NHU3).
T2 sequence (Q8NHU3 whole entry): T1 sequence (whole entry)
Put plainly: Inhibition of SMS2 (unknown origin) over-expressed in H5 insect cell lysate using C6-NBD-Ceramide and DMPC as substrates preincubated for 30 mins followed by substrate addition and measured after 2 hrs by TLC or HPLC method. In kind it is subcellular.

The nature of assay [3]: Inhibition of SMS (unknown origin). The arrangement: species or system Homo sapiens.

The term inhibition denotes the share of the control response that was lost under treatment. As for `c1ccc(COc2ccccc2CNc2ccccc2)cc1`, the inhibition result in assay [1] is “inactive”.
On the same count and under the same terms, with `NC(=O)C(Nc1ccccc1)c1ccccc1OCc1ccccc1` (configuration not stated) the figure was 39%.
What is called IC50 is the midpoint of a concentration-inhibition curve. Higher therefore signals weaker potency in that assay. As to `Cc1cccc(C)c1COc1ccccc1C(=O)Nc1cccnc1`, the half-inhibitory concentration (IC50) in assay [2] was 890 nM.
Still for that read-out and setting: to `O=C(NC1CCCCC1)c1ccccc1OCc1ccccc1` belongs 43400 nM; to `O=C(NCc1ccco1)c1ccccc1OCc1ccccc1`, 49000 nM.
As for `CCCCCCCOc1ccc(Cl)cc1COc1ccccc1C(=O)Nc1cccnc1`, the IC50 in assay [2] was 430 nM.
With `O=C(Nc1cccnc1)c1ccccc1OCc1ccccc1C(F)(F)F`, in assay [2], the IC50 was found to be 2100 nM.
On the same count and under the same terms, with `O=C(Nc1cccnc1)c1ccccc1OCc1c(Cl)cccc1Cl` the figure was 690 nM; with `O=C(Nc1cccnc1)c1ccccc1OCc1cc(F)ccc1Cl`, 740 nM.
`COc1ccc(OC)c(COc2ccccc2C(=O)Nc2cccnc2)c1` returned an IC50 in assay [2] of 2800 nM.
`COc1ccc(Cl)cc1COc1ccccc1C(=O)Nc1cccnc1` gave an IC50 in assay [2] of 670 nM.
Molecule `N#Cc1ccccc1COc1ccccc1C(=O)Nc1cccnc1` registered an IC50 in assay [2] of 31800 nM.
The same measure, in the same setting: to `O=C(Nc1cccnc1)c1ccccc1OCc1ccccc1OCCCCCCCl` belongs 470 nM; to `N#Cc1cccc(COc2ccccc2C(=O)Nc2cccnc2)c1`, 60700 nM.
Still for that read-out and setting: with `CCCCCCOc1ccc(Cl)cc1COc1ccccc1C(=O)Nc1cccnc1` the figure was 520 nM.
In assay [2], `Cc1c(Cl)cccc1COc1ccccc1C(=O)Nc1cccnc1` returned an IC50 of 3800 nM.
`N#CC(Nc1ccccc1)c1ccccc1OCc1ccccc1` (configuration not stated) displayed an inhibition in assay [1] of 75%.
In assay [2], `O=C(Nc1ccccc1)c1ccccc1OCc1ccccc1` returned an IC50 of 13400 nM. In assay [1], this molecule gave an inhibition of 69%.
On to `O=C(Nc1cccnc1)c1ccccc1OCc1ccccc1OCCCCCl`, for which the IC50 in assay [2] was found to be 1300 nM.
In turn, `O=C(Nc1cccnc1)c1ccccc1OCc1ccccc1` registered an IC50 in assay [2] of 3200 nM.
`O=C(Nc1cccnc1)c1ccccc1OCc1ccccc1Cl`: half-maximal inhibition in assay [2] (IC50) required 1100 nM.
Same read-out and setting: with `Cc1ccc(F)cc1COc1ccccc1C(=O)Nc1cccnc1` the figure was 740 nM.
The molecule `CC(C#N)(Nc1ccccc1)c1ccccc1OCc1ccccc1` (configuration not stated) registered an IC50 in assay [2] of 34000 nM. In assay [1], the inhibition was 58%.
In assay [2], `O=C(Nc1cccnc1)c1ccccc1OCc1cc(Cl)ccc1Cl` gave an IC50 of 990 nM.
Regarding `c1ccc(COc2ccccc2C(Nc2ccccc2)c2nnn[nH]2)cc1` (configuration not stated), the inhibition result in assay [1] is “inactive”.
`Cc1ccc(Cl)cc1COc1ccccc1C(=O)Nc1cccnc1`: it took 1100 nM to reach half-maximal inhibition in assay [2] (IC50).
Same read-out and setting: with `O=C(NCc1ccccc1)c1ccccc1OCc1ccccc1` the figure was 34200 nM; with `O=C(Nc1cccnc1)c1ccccc1OCc1ccccc1OCCCCCCl`, 670 nM.
As for `S=C(S)O[C@@H]1C[C@H]2C[C@@H]1[C@H]1CCC[C@@H]21`, the IC50 in assay [3] was 177000 to 600000 nM.
`O=C(NC1CCCNC1)c1ccccc1OCc1ccccc1Cl` (configuration not stated): the IC50 in assay [2] is over 100000 nM.
